Values quoted from earlier work as cited in PMC9851200, “Multiparameter phenotypic screening for endogenous TFEB and TFE3 translocation identifies novel chemical series modulating lysosome function” (Autophagy, 2022).

Assays:
Set-up in all cases: method as in original PKIS2 published data
[1] = biological target: kinases (KINOMEscan panel) (Homo sapiens, UniProt Q96GD4); settings: kinase AURKB; Published KINOMEscan; ref original PKIS2 published data; cited from earlier work
[2] = biological target: T1, kinases (KINOMEscan panel) (Homo sapiens, UniProt Q9UBE8); settings: NLK; Published KINOMEscan; ref original PKIS2 published data; cited from earlier work
T1 sequence (Q9UBE8 1-527): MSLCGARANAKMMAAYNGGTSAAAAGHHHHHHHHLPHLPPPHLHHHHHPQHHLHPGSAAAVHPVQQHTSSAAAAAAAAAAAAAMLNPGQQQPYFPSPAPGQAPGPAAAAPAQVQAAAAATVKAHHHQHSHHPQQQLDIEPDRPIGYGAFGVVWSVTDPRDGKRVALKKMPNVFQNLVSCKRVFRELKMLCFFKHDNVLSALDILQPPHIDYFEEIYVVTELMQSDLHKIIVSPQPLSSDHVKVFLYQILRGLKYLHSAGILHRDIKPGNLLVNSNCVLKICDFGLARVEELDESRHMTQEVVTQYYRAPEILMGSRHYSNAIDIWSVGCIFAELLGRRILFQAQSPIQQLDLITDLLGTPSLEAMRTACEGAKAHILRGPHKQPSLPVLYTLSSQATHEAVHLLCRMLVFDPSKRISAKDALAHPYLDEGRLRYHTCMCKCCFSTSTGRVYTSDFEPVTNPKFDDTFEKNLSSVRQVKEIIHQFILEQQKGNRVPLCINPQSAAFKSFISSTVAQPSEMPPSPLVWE

[3] = biological target: T2, kinases (KINOMEscan panel) (Homo sapiens, UniProt O14757); settings: CHEK1; Published KINOMEscan; ref original PKIS2 published data; cited from earlier work
T2 sequence (O14757 1-476): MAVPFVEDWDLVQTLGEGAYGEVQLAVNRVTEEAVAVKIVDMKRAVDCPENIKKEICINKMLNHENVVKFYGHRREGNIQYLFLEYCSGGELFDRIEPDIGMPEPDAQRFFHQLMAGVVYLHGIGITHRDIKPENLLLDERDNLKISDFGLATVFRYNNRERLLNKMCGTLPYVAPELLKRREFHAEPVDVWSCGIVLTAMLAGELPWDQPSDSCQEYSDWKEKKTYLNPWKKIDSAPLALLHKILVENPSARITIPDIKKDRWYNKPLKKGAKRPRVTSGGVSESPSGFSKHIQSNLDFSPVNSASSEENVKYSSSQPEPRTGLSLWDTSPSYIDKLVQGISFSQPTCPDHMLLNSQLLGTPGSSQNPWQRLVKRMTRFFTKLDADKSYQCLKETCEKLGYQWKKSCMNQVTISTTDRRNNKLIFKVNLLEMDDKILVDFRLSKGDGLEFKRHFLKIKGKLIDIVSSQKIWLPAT

[4] = biological target: kinases (KINOMEscan panel) (Homo sapiens, UniProt P29597); settings: Published KINOMEscan, ref original PKIS2 published data, cited from earlier work
kinases (KINOMEscan panel) (Homo sapiens, UniProt P29597), sequence (P29597 whole entry): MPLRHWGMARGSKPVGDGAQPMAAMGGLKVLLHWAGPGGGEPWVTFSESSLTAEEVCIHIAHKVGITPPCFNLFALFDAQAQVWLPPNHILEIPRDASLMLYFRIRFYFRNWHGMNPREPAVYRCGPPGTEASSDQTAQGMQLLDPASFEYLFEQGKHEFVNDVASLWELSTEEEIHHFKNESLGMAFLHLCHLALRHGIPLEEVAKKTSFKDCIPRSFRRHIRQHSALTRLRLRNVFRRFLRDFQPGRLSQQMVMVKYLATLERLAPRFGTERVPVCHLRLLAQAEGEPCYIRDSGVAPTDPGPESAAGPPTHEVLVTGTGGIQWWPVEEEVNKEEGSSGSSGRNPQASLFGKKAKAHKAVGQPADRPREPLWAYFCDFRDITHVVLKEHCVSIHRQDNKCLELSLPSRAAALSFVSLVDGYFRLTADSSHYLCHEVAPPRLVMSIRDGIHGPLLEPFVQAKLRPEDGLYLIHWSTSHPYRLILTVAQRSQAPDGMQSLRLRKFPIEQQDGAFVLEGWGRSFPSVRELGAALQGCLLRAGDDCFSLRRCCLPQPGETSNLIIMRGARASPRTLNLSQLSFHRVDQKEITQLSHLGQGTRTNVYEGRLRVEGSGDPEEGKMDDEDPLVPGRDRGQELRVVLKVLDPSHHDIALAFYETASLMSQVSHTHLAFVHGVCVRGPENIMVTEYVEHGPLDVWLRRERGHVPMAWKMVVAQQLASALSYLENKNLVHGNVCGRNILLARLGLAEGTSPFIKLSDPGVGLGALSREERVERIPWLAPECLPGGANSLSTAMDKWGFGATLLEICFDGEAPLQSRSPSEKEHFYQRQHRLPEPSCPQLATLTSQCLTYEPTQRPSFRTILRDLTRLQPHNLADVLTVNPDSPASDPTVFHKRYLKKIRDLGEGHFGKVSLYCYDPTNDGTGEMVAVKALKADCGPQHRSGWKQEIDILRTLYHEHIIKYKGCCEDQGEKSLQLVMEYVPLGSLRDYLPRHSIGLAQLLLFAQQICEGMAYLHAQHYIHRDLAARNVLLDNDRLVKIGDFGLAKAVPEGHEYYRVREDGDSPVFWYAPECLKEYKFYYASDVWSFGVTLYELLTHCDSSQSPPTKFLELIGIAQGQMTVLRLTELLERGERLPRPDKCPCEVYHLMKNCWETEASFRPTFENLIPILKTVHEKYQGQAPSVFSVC

[5] = biological target: T3, kinases (KINOMEscan panel) (Homo sapiens, UniProt P54762); settings: kinase EPHB1; Published KINOMEscan; ref original PKIS2 published data; cited from earlier work
T3 sequence (P54762 18-984): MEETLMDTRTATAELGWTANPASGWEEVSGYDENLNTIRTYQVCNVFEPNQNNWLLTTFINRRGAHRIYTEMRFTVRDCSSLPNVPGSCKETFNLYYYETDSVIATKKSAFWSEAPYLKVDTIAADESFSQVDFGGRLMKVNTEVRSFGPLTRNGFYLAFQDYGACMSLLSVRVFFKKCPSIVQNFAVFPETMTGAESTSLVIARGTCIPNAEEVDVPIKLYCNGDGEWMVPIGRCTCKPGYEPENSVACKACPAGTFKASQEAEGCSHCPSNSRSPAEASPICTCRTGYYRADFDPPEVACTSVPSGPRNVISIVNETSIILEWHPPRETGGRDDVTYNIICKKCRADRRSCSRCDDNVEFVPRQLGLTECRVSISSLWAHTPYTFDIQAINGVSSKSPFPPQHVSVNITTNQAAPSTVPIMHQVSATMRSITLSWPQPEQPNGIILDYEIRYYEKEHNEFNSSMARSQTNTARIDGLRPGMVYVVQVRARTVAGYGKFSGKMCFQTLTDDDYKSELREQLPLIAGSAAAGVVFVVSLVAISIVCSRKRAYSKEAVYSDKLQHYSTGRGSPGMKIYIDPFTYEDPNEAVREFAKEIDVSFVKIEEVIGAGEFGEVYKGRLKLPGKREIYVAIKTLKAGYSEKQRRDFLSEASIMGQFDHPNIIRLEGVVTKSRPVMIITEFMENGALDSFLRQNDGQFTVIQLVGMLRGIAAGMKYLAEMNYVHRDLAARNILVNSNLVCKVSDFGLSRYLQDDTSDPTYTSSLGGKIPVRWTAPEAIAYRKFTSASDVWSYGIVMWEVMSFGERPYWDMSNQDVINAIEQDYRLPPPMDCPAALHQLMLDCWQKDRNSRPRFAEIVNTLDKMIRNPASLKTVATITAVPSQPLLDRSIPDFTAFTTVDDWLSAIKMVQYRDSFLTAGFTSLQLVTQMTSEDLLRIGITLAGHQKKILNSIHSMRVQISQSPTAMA

[6] = biological target: T4, kinases (KINOMEscan panel) (Homo sapiens, UniProt O15530); settings: Published KINOMEscan; ref original PKIS2 published data; cited from earlier work
T4 sequence (O15530 1-556): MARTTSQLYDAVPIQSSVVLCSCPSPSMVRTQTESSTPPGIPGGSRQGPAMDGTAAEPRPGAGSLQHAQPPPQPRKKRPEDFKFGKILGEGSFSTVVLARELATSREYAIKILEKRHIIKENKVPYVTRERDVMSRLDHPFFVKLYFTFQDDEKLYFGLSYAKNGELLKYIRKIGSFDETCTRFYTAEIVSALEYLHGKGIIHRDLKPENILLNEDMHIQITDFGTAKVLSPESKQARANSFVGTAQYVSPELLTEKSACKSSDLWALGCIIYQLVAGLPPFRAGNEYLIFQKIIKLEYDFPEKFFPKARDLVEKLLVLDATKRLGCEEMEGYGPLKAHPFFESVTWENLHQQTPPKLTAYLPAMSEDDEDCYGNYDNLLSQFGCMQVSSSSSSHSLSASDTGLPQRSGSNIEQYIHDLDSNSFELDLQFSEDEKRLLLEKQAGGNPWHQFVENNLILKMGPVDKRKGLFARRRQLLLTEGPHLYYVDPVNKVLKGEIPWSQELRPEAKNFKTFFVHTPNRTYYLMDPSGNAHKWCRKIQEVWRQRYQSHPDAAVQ

kinases (KINOMEscan panel) (Homo sapiens, UniProt Q96GD4), sequence (Q96GD4 whole entry): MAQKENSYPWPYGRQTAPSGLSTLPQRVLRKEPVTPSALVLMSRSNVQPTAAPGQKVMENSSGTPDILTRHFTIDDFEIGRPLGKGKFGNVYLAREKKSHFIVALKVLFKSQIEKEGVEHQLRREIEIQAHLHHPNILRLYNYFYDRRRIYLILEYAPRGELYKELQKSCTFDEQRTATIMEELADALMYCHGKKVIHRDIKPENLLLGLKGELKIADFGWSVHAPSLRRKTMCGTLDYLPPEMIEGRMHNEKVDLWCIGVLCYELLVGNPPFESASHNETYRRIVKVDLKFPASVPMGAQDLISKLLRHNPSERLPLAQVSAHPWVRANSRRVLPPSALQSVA

In the case of Cc1cccc(-c2nc(Nc3ccncc3)c3ccccc3n2)n1 [NK215], the “KINOMEscan AURKB” value [1] is listed as 10, the “KINOMEscan NLK” value [2] is listed as 47 and the “KINOMEscan CHEK1” value [3] is listed as 0. For the same compound, the “KINOMEscan TYK2(JH2domain-pseudokinase)” value ([4]; TYK2(JH2domain-pseudokinase)) was 40, the “KINOMEscan TYK2(JH1domain-catalytic)” value ([4]; kinase TYK2(JH1domain-catalytic)) was 8 and the “KINOMEscan EPHB1” value [5] was 3. For the same compound, the “KINOMEscan PDPK1” value [6] was 24.
